Experiments:
[1] = biological target: T1, E1 and His-E2 Ubch10 (UBC10) (Homo sapiens, UniProt P22314); assay: ATP competitive assay, 200 μM ATP (high ATP); type: biochemical; settings: conclusion from UBC10 inhibition at 1 μM versus 200 μM ATP
T1 construct: host or cells: E. coli (His-Ubch10); Sf9 insect cells (E1)
T1 sequence (P22314 1-1058): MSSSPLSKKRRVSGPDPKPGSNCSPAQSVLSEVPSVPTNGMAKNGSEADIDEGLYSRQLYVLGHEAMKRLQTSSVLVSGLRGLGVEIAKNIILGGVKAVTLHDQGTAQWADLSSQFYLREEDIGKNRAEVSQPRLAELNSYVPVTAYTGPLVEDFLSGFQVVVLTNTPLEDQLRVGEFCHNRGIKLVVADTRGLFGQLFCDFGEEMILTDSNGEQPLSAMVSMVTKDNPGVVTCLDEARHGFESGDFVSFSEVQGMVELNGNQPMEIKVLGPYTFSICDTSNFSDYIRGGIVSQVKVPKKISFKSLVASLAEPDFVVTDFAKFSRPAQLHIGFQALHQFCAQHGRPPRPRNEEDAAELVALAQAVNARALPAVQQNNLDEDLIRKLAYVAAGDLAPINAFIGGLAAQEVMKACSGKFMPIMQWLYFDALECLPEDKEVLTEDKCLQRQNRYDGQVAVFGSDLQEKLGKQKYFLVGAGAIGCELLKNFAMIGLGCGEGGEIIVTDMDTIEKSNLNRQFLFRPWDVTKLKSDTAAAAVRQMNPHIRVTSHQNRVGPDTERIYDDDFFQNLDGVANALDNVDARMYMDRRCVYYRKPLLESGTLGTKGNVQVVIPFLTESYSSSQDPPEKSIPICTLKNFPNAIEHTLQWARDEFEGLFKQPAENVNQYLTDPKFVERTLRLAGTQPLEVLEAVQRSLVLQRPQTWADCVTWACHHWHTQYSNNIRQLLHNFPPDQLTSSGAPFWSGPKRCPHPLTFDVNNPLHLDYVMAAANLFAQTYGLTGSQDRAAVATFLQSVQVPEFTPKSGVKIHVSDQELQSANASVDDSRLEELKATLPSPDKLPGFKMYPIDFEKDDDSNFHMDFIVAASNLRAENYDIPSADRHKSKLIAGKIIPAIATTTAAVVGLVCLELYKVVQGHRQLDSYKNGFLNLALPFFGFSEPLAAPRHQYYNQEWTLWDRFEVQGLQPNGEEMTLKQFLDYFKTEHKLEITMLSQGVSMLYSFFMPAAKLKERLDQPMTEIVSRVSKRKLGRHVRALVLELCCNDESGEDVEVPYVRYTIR
Experimental: The attachment of a ubiquitin moiety to the E2 conjugating agent was assayed using Flag-ubiquitin that was purified from E. coli, E2 Ubch10 that was purified as a His-Ubch10 from E. coli, and E1 that was purified from Sf9 insect cells (Affiniti Research Products, Exeter, U.K.). The wells of a Nickel-substrate 96-well plate (Pierce Chemical) were blocked with 100 μl of 1% casein/phosphate buffered saline (PBS) for 1 hour at room temperature. The blocked Nickel-substrate plate was then washed three times with 200 μl of PBST (0.1% Tween-20 in PBS). […] The final reaction solution volume was fixed to 80 μl with Millipore-filtered water. To this was added the following: a ubiquitin agent inhibitor in 10 μl of DMSO, 10 μl of E1 and His-E2 Ubch10 in 20 mM Tris buffer, pH 7.5, and 5% glycerol so that there was 10 ng/well of E1 and 20 ng/well of His-E2 Ubch10. […]
After 1 hour, the wells were washed three times with 200 μl of PBST and the amount of E2-ubiquitin complex was measured. […] The luminescence of each well was then measured using a […] to calculate the amount of E2-ubiquitin complex. […]
The table below illustrates the ATP competitive inhibition properties of the pharmaceutical compositions of the invention comprising the compounds listed in the table using the ATP competitive assay described above. Inhibition was measured using IC50 values.

E1 and His-E2 Ubch10 = biological target: T2, E1 and His-E2 Ubch10 (Homo sapiens, UniProt P22314); assay: E1 to E2 transfer assay, His-E2 Ubch10, 1.0 μM ATP (low ATP); type: biochemical; settings: Table 5, ATP inhibition properties; inhibition measured using IC50 values
T2 construct: host or cells: E. coli (His-Ubch10); Sf9 insect cells (E1)
T2 sequence (P22314 1-1058): T1 sequence (P22314 1-1058)
Outline: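 His-Ubch10 (20 ng/well), E1 (10 ng/well) and Flag-ubiquitin (100 ng) reacted 1 h at room temperature on nickel plates in 62.5 mM Tris pH 7.5, 0.75 mM DTT, 1.0 μM ATP with inhibitor. E2-ubiquitin complex detected by anti-Flag/HRP luminescence; IC50 determined.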

Row | Structure (SMILES) | Results [1] | UBC10 (E1 and His-E2 Ubch10)
1 | COc1ccc2sc(NC(=O)c3ccc4c(c3)OCCO4)nc2c1 [Compound 14, N-(5-methoxy-1,3-benzothiazol-2-yl)-2,3-dihydro-1,4-benzodioxine-6-carboxamide] | ATP competitve | 
2 | COc1ccc2nc(NC(=O)c3ccc(C)cc3)sc2c1 [Compound 3, N-(6-methoxy-1,3-benzothiazoi-2-yl)-4-methylbenzamide] | ATP competitve | 
3 | COc1ccc2nc(NC(=O)NC34CC5CC(CC(C5)C3)C4)sc2c1 [Compound 97, N-1-adamantyl-N′-(6-methoxy-1,3-benzothiazol-2-yl)urea] |  | ++ (++ indicates inhibition at 50 μM or or less)
4 | O=C(Nc1nc2ccccc2s1)c1cccc(Cl)c1 [Compound 186, N-(benzo[d]thiazol-2-yl)-3-chlorobenzamide] |  | −− (−− indicates marginal or no inhibition detected with this assay)
5 | COc1ccc2nc(NC(=O)c3ccccc3F)sc2c1 [Compound 59, 2-fluoro-N-(6-methoxybenzo[d]thiazol-2-yl)benzamide] |  | ++ (++ indicates inhibition at 50 μM or or less)

From patent US20080039629A1, “Benzothniazole compositions and their use as ubiquition ligation inhibitors” (RIGEL PHARMACEUTICALS, INC., priority 2003, published 2008)
